Results published in EP4050002A1, “ANTI-PROLIFERATIVE AGENTS” (First Health Pharmaceuticals B.V., priority 2021, dated 2022).

Experiments:
[1] = Plasma stability; assay type: in vitro ADME, Sprague Dawley rats; details: Rat plasma
Description: (§1) Plasma previously separated from whole blood in EDTA-treated tubes and frozen; blood samples obtained from healthy volunteers, Sprague Dawley rats and CD1 mice, was thawed at room temperature and centrifuged at 1400x RCF 4°C, for 15 minutes. Approximately 90% of the clear supernatant fraction was transferred to a separate tube and was used for the assay.
(§2) Stocks (1 mM and 25 µM) of test compound were prepared in acetonitrile:water (50:50 v/v). Plasma samples were heat inactivated at 54°C. 3 µl of 25 µM test compound were added to 72 µl of heat inactivated plasma. A 50 µL aliquot of the mixture was taken and crashed with 200 µl of acetonitrile containing Telmisartan 100 ng/ml as internal standard and was further processed along with other time points: 10, 30 60 and 120 minutes.
(§3) Final working stock of 1 µM was prepared by diluting 12 µl of 25 µM stock in 288 µl of plasma. The obtained solution (300 µl) of plasma containing the test compound was incubated for […] at 37°C in shaker water bath with gentle shaking. 50 µl aliquot of sample at 10, 30, 60 and 120 min was precipitated immediately with 200 µl of acetonitrile containing internal standard and centrifuged at 4000x RCF, 4°C for 20 minutes. 150 µl of supernatant was diluted with 150 µl of water and analyzed by LC-MS/MS.
(§4) The % remaining of the test substance was calculated as: (Peak Area ratio at time (min))/(Peak Area Ratio at 0 min) ^∗ 100
(§5) The API400 MS and Agilent 1260 Infinity LC were used. Mobile Phase included 10mM Ammonium acetate with 0.1% formic acid in MilliQ water, and Methanol. The column was Phenomenex, KINETIC EVO C18 100A 5u 50^∗4.6 mm, 10 µl injection volume.

[2] = Plasma stability; assay type: in vitro ADME, CD1 mice; details: Mouse plasma
Description: as §1, §2, §3, §4, §5

SMILES: CCCCc1cn(-c2ccc(-c3nnc(-c4ccccc4C(F)(F)F)o3)cc2)nn1 [Compound 5]
- % Remaining ± SD ([1]; 0 minutes): 100.0 ± 1.0%
- % Remaining ± SD ([1]; 10 minutes): 107.1 ± 4.1%
- % Remaining ± SD ([1]; 30 minutes): 103.3 ± 2.3%
- % Remaining ± SD ([1]; 60 minutes): 99.0 ± 6.8%
- % Remaining ± SD ([1]; 120 minutes): 104.8 ± 5.6%
- % Remaining ± SD ([2]; 0 minutes): 100.0 ± 1.8%
- % Remaining ± SD ([2]; 10 minutes): 117.2 ± 8.6%
- % Remaining ± SD ([2]; 30 minutes): 111.1 ± 0.3%
- % Remaining ± SD ([2]; 60 minutes): 108.2 ± 4.8%
- % Remaining ± SD ([2]; 120 minutes): 123.2 ± 26.5%
